Consider six compounds from patent US11667646B2, “Solid state forms of rucaparib and of rucaparib salts” (ASSIA CHEMICAL INDUSTRIES LTD., priority 2017, dated 2023).

Structures are written as SMILES. Structures can show the parent of a compound that is named as a salt.

A short description of data set [1]: API mass increase of the salt vs. the free base.
Data set [2] can be described thus: Hygroscopicity. Type of data set: physicochemical.
Data set [3] can be described thus: Solid state stability at controlled relative humidity, room temperature, open Petri dish. It is filed as physicochemical.
Data set [4] in a line: Kinetic solubility at various pH ranges. Type of data set: physicochemical.
Data set [5] in a line: Compressibility. Type of data set: physicochemical.
The mark [6] stands for this setting: 20-100% relative humidity (RH) at room temperature (RT) in open Petri dish.

In the case of `CNCc1ccc(-c2[nH]c3cc(F)cc4c3c2CCNC4=O)cc1.Cc1ccc(S(=O)(=O)O)cc1` [8-fluoro-2-{4-[(methylamino)methyl]phenyl}-1,3,4,5-tetrahydro-6H-azepino[5,4,3-cd]indol-6-oneTosylate], the “API mass increase of the salt vs. the free base” value in data set [1] is 53%. In data set [2], the hygroscopicity entry is reported as “non-hygroscopic”. Besides, in data set [3] (setting [6]), the period of stability entry is “at least 1 month”. In data set [4], the kinetic solubility entry was “improved”. Also, the compressibility properties result in data set [5] is recorded as “good”.

For the compound `CNCc1ccc(-c2[nH]c3cc(F)cc4c3c2CCNC4=O)cc1` [Crystalline Form C of Rucaparib base, 8-fluoro-2-{4-[(methylamino)methyl]phenyl}-1,3,4,5-tetrahydro-6H-azepino[5,4,3-cd]indol-6-one], in data set [1], the “API mass increase of the salt vs. the free base” value is on record as “no API mass increase”. Moreover, the hygroscopicity entry in data set [2] is given as “non-hygroscopic”. The period of stability result in data set [3] (setting [6]) is listed as “at least 1 month”. Also, the kinetic solubility result in data set [4] was “improved”.

In the case of `CNCc1ccc(-c2[nH]c3cc(F)cc4c3c2CCNC4=O)cc1` [Crystalline Form I of Rucaparib base, 8-fluoro-2-{4-[(methylamino)methyl]phenyl}-1,3,4,5-tetrahydro-6H-azepino[5,4,3-cd]indol-6-one], in data set [1], the “API mass increase of the salt vs. the free base” value was “no API mass increase”. Further, the hygroscopicity entry in data set [2] is reported as “non-hygroscopic”. In data set [3] (setting [6]), the period of stability result is “at least 1 month”. In addition, the kinetic solubility entry in data set [4] is recorded as “improved”.

As for `CNCc1ccc(-c2[nH]c3cc(F)cc4c3c2CCNC4=O)cc1` [Crystalline Form II of Rucaparib base, 8-fluoro-2-{4-[(methylamino)methyl]phenyl}-1,3,4,5-tetrahydro-6H-azepino[5,4,3-cd]indol-6-one], in data set [1], the “API mass increase of the salt vs. the free base” value was “no API mass increase”. Also, the period of stability entry in data set [3] (20-40% relative humidity (RH) at room temperature (RT) in open Petri dish) is “at least 1 month”.

`CNCc1ccc(-c2[nH]c3cc(F)cc4c3c2CCNC4=O)cc1` [Crystalline Form IV of Rucaparib Hemi-Edisylate] [8-fluoro-2-{4-[(methylamino)methyl]phenyl}-1,3,4,5-tetrahydro-6H-azepino[5,4,3-cd]indol-6-one Hemi-Edisylate]: in data set [1], the “API mass increase of the salt vs. the free base” value was 9%. In addition, the hygroscopicity result in data set [2] is on record as “non-hygroscopic”. Moreover, the period of stability entry in data set [3] (setting [6]) is “at least 1 month”. The kinetic solubility entry in data set [4] is “improved”. Also, the compressibility properties result in data set [5] is reported as “good”.

In the case of `CNCc1ccc(-c2[nH]c3cc(F)cc4c3c2CCNC4=O)cc1` [Rucaparib camsylate, 8-fluoro-2-{4-[(methylamino)methyl]phenyl}-1,3,4,5-tetrahydro-6H-azepino[5,4,3-cd]indol-6-one ((1S,4R)-7,7 dimethyl-2-oxobicyclo[2.2.1]hept-1-yl) methane-sulfonic acid salt, reference compound], in data set [1], the “API mass increase of the salt vs. the free base” value came to 72%.
